In PMC10296094, “K-Ras Binds Calmodulin-Related Centrin1 with Potential Implications for K-Ras Driven Cancer Cell Stemness” (Cancers, 2023):
Where two headings read alike, the source gives them in different places. Values belong to the compound of their own block, whether it stands above or below them.

Assays:
CaM = settings: F-PMCA peptide as probe; read-out: CaM Kd (References); cited from earlier work
K-RasG12V/centrin1 = target: T1, K-RasG12V/centrin1 (Homo sapiens, UniProt Q12798); assay: Cellular BRET Rluc8-K-RasG12V/GFP2-centrin1 in HEK293-ebna cells; format: cell-based; settings: for effect on BRETtop of K-RasG12V/centrin1: ophiobolin A 2.5 µM, calmidazolium 10 µM, calmirasone1 20 µM, 24 h, n = 3
T1 construct: expressed in transfected cells; host or cells: HEK293-ebna
T1 sequence (Q12798 1-172): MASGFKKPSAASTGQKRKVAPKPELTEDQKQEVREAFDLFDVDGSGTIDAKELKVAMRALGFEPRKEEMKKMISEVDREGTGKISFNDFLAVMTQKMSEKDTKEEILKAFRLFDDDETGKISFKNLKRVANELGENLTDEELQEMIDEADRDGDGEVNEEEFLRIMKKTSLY

centrin1 = target: T2, centrin1 (Homo sapiens, UniProt Q12798); assay: Fluorescence anisotropy competition: displacement of F-Sfi1 from centrin1 by CaM inhibitors; format: binding
T2 sequence (Q12798 1-172): T1 sequence (Q12798 1-172)
Protocol: The Sfi1 peptide was derived from 670-REVAA-RESQH-NRQLL-RGALR-RWK-692 of human Sfi1 and the fluorescein was attached to the native C-terminal Lys. Sfi1 peptide titration was performed in a buffer composed of 10 mM HEPES pH 7.4, 100 mM CaCl2, and 0.005% v/v Tween 20. For binding, to a 2-fold dilution series of centrin1, 100 nM of Sfi1 peptide was added, and the reaction mix was incubated for 45 min at RT before anisotropy measurements. For measuring the IC50 of inhibitors to centrin1, to the 3-fold dilution series of inhibitors in the assay buffer, a complex of 100 nM fluorescein labelled Sfi1 peptide and 250 nM His-centrin1 was added in 20 µL volume in a 384-well plate. The fluorescence anisotropy was measured after overnight incubation at RT.
The fluorescence anisotropy was measured on a Clariostar (BMG Labtech, Ortenberg, Germany) plate reader using the fluorescence intensity signal recorded from vertical (Iv)- and horizontal (Ih)-polarised light using a fluorescence polarisation module (λexcitation 482 ± 8 nm and λemission 530 ± 20 nm). Fluorescence anisotropy was calculated from the measured fluorescence intensities according to r=Iv−GλIh/Iv+2GλIh, where r is the fluorescence anisotropy value and Iv and Ih are the fluorescence emission intensities detected with vertical and horizontal polarisation, respectively. The instrument specific correction factor G(λ) was set to 1 and not determined further. A quadratic equation as described by others was defined in Prism (GraphPad, version 9.5.1, La Jolla, CA, USA) and was used to determine the KD value of the fluorescein tagged peptides to target protein. y=Af+Ab−Af∗(Lt+KD+x−Lt+KD+x^2−4∗Lt∗x/2Lt
The IC50 value of inhibitors was determined by plotting the log concentration of inhibitor against fluorescence anisotropy values and fitting the data to log inhibitor vs. response—variable slope (four parameters) equation in Prism (GraphPad).

K-Ras/centrin1 = assay: Cellular BRET donor saturation titration Rluc8-K-Ras/GFP2-centrin1 in HEK293-ebna cells; format: cell-based, human; settings: 10 µM mevastatin, 24 h
Protocol: (§1) The detailed method of our BRET assay can be found in [9, 43]. Briefly, ~200,000 HEK293-ebna cells were seeded per well of a 12-well plate (cat. no. 665180, Greiner Bio-One, Vivoorde, Belgium) and grown in 1 mL of complete DMEM. The next day, ~1 µg of BRET sensor plasmids was transfected using 2.5 µL of jetPRIME. The concentration of donor plasmid was 25 ng, and that of the acceptor plasmid had increased from 25 ng to 1000 ng for titration curves. Cells were treated with inhibitors or vehicle control (DMSO at 0.2% v/v) 24 h after transfection. Cells were collected the following day in PBS and plated in white, flat bottom 96-well plates (cat. no. 236108, Nunc, Thermo Fisher Scientific). BRET measurements were performed on a Clariostar plate reader (BMG Labtech). Three channels were read. The first channel was First, GFP2-fluorescence (λexcitation 405 ± 10 nm and λemission 515 ± 10 nm), which is directly proportional to the acceptor concentration (RFU). Second, the channel was read after adding coelenterazine 400a (cat. no. C-320, GoldBio, Saint Louis, MO, USA; at 10 μM final concentration) BRET-channel (515 ± 15 nm) readings in well-mode, and then again (third) with the luminescence channel (410 ± 40 nm), and recordings were made. Signals corresponded to the BRET signal and donor (RLU) signals. […] The relative expression is calculated as the ratio of RFU/RLU and denoted as [Acceptor]/[Donor]. […]

CTK/centrin1 = assay: Cellular BRET donor saturation titration Rluc8-CTK/GFP2-centrin1 in HEK293-ebna cells; format: cell-based, human; settings: 10 µM mevastatin, 24 h
Protocol: as §1

CTK/CaM = assay: Cellular BRET donor saturation titration Rluc8-CTK/GFP2-CaM in HEK293-ebna cells; format: cell-based, human; settings: 10 µM mevastatin, 24 h
Protocol: as §1

K-Ras/CaM = assay: Cellular BRET donor saturation titration Rluc8-K-Ras/GFP2-CaM in HEK293-ebna cells; format: cell-based, human; settings: 10 µM mevastatin, 24 h
Protocol: as §1

[1] = 100 nM F-Sfi1 and 250 nM His-centrin1, overnight at RT, Kd converted from IC50, read-out: Centrin1 Mean Kd (Repeat Values)

Structure (SMILES): CC(C)=C[C@H]1C[C@H](C)[C@]2(CC[C@]3(C)C[C@H]4[C@H](C(=O)C[C@@]4(C)O)/C(C=O)=C\C[C@H]32)O1 [ophiobolin A]
Kd (CaM): 3.5 µM
effect on BRETtop of K-RasG12V/centrin1 (K-RasG12V/centrin1): lowered
Kd (centrin1): 49 µM

Kd (centrin1; [1]): 18.2 µM
Structure (SMILES): NCCCCCCNS(=O)(=O)c1cccc2c(Cl)cccc12 [W-7]
Kd (CaM): 1.47 µM

Structure (SMILES): Clc1ccc(C(c2ccc(Cl)cc2)n2cc[n+](CC(OCc3ccc(Cl)cc3Cl)c3ccc(Cl)cc3Cl)c2)cc1 (centres unmarked) [calmidazolium, calmidazolium chloride]
Kd (CaM): 0.0135 µM
IC50 (K-RasG12V/centrin1; HEK293-ebna, donor/acceptor plasmid ratio 1/19, 24 h treatment, n = 2, read-out: IC50, inhibition of K-RasG12V/centrin1 BRET interaction): 10.44 ± 0.05 µM
effect on BRETtop of K-RasG12V/centrin1 (K-RasG12V/centrin1): lowered
Kd (centrin1; [1]): 1.6 µM

Structure (SMILES): CC[C@H](C)C(=O)O[C@H]1CCC=C2C=C[C@H](C)[C@H](CC[C@@H]3C[C@@H](O)CC(=O)O3)[C@H]21 [mevastatin]
effect on BRET-levels of K-Ras with centrin1 (K-Ras/centrin1): did not significantly affect
BRETtop (K-Ras + centrin1) (K-Ras/centrin1; n = 3): 0.078 ± 0.005
effect on BRET of CTK with centrin1 (CTK/centrin1): did not decrease
BRETtop (CTK + centrin1) (CTK/centrin1; n = 3): 0.061 ± 0.003
effect on BRET of CTK with CaM (CTK/CaM): did not decrease
BRETtop (CTK + CaM) (CTK/CaM; n = 3): 0.063 ± 0.004
effect on BRET-levels of K-Ras with CaM (K-Ras/CaM): did not significantly affect
BRETtop (K-Ras + CaM) (K-Ras/CaM; n = 3): 0.097 ± 0.005
